Experimental findings from PMC6895199, “A new antiviral scaffold for human norovirus identified with computer-aided approaches on the viral polymerase” (Scientific Reports, 2019) are described below.

Some results are limits rather than exact numbers.

One series has as its target HuNoV (GII.4) RdRp (Norovirus Hu/GII.4/Sydney/NSW0514/2012/AU, UniProt K4L8Z7). Description: Quantitative fluorescent RdRp activity assay (PicoGreen, poly(C) template). The format is biochemical, human norovirus Sydney 2012. The note with it: for IC50: HuNoV (GII.4) RdRp activity, six concentrations 0.1–100 µM, mean ± SD; for inhibition at 20 µM: read-out: inhibition of HuNoV RdRp activity at fixed concentration. On the procedure: The newly synthesised compounds, including the carboxylate ester derivatives 34–35 and 7 from the Core Hopping approach, were evaluated for their enzymatic inhibition of human norovirus Sydney 2012 (HuNoV (GII.4)) RdRp activity in vitro, using a quantitative fluorescent assay. Compounds were tested at six different concentrations (concentration range examined: 0.1–100 µM) and compared to the relative activity of mock treated samples containing the vehicle only (0.5% DMSO [vol/vol]). PPNDS [Pyridoxal-5′-phosphate-6-(2′-naphthylazo-6′-nitro-4′,8′-disulfonate) tetrasodium salt], a previously reported potent inhibitor of NoV RdRp activity, and 1 were used as positive controls. Dose-dependent inhibitory response curves were used to establish IC50 values for the eight test compounds, as reported in Table 1 (see also Supplementary Fig. S1).
The newly prepared compounds 48–60 were initially evaluated against norovirus Sydney 2012 RdRp activity in vitro using a quantitative fluorescent assay. Compounds were tested at a fixed concentration of 20 µM and compared to the relative activity of mock treated samples. PPNDS and 1 were used as positive controls. […] These two rings are structural features present in 1 and in one of its derivatives we have previously reported. […] From these observations, the thiophene ring appears not to influence inhibitory activity. Derivatives in which the central core of 48 has been used to link the two terminal hydrophobic rings of 1 or of its derivatives we have previously reported[25] (55, 57, 58) appear to retain the RdRp inhibitory activity found for 48 (~20% at 20 µM). A similar effect is obtained when a sulfonyl group, as in our hit 1, is used to link ring 2, regardless if it is a thiazole (59) or an unsubstituted phenyl ring (60), to the rest of the molecule. […] Overall, even if showing a reduced biochemical activity in comparison with 1, some of the new derivatives can be considered as modest HuNoV RdRp inhibitors at 20 µM.
Fluorescent RdRp activity assays were carried out as previously described[12],[29]. Briefly, RdRp activity was quantified by monitoring the formation of double-stranded RNA (dsRNA) from a single stranded homopolymeric template, poly(C) (Sigma Aldrich), using the fluorescent dye PicoGreen (Life Technologies, Carlsbad, CA, USA). RdRp assays were performed in 384-well plates, and each reaction mixture contained 400 ng enzyme, 45 μM GTP, 10 ng/μL poly(C) RNA, 2.5 mM MnCl2, 5 mM dithiothreitol, (DTT), 0.01% bovine serum albumin (BSA), and 0.005% Tween 20 in 20 mM Tris-HCl, pH 7.5, with a final reaction volume of 25 μL. The PPNDS and compound 1 were used as a positive controls. RdRps were incubated for 10 mins at 30 °C in the presence of the test compounds or the compound vehicle DMSO (0.5% vol/vol) before addition into the reaction mixture, which was then allowed to run 15 min at 30 °C then terminated with 10 mM EDTA, followed by PicoGreen staining and dsRNA quantitation. GraphPad Prism V6.05 (La Jolla, CA, USA) was used to plot the IC50 values. A secondary gel-based polymerase activity assay was used as a counter-screen as described below, to exclude the possibility of RdRp activity enhancement. Primed elongation activity was examined in a gel-based assay as previously described[12],[29] using the RNA template (PE44-NoV). Gels were imaged using BioRad (Hercules, CA, U.SA) Geldoc Universal Hood II, running BioRad Image Lab software, V4.1, build 16.

For another series, the system named is MNV. As to the kind of experiment: MNV CPE reduction assay (MTS) in RAW 264.7 cells. The format is cell-based, mouse norovirus (MNV-1.CW1). The note with it: Norovirus, RAW264.7, in Mus musculus. On the procedure:
The newly prepared compounds 2–7 and 34–35 were evaluated for their antiviral effect against the genogroup V mouse norovirus (MNV) using the mouse macrophage cell line RAW264.7. This assay evaluates the ability of the compounds to protect infected cells from the virus-induced cytopathic effect, thus being suitable to identify inhibition of virus replication at every step of the virus life cycle, and representing a robust cellular assay available for the rapid evaluation of potential norovirus inhibitors. Compounds identified using MNV have shown effects against HuNoV in vitro and in vivo, as in the case of nucleoside RdRp inhibitor 2′-C-methylcytidine (2CMC)[34]–[36]. Unfortunately, despite not presenting the aqueous solubility issues we had previously encountered for 1[29], no significant antiviral effect could be observed in this assay for the new compounds up to the maximum concentration tested. The new structural modifications, despite retaining inhibition of the RdRp in an isolated enzyme activity assay and showing no cytotoxic effects at the test concentrations in the MNV antiviral assay (Supplementary Table S1), are correlated with a lack of antiviral activity. As these new structures present the same limitation of most non-nucleoside HuNoV polymerase inhibitors reported so far[22], we were prompted to apply a different computer-aided strategy to further modify the scaffold of 1, with the aim to achieve an antiviral effect in cellular systems. […]
Since the main scope of this work was to find new norovirus inhibitors which show antiviral effects against both the HuNoV RdRp and in norovirus-infected cells, priority was given to the evaluation of most of the new molecules for their antiviral activity against MNV in infected RAW cells. The nucleoside 2′-C-methylcytidine was used as positive control. The test compounds were evaluated at eight different concentrations (range 0.6–100 µM) and their ability to reduce the virus-induced cytopathic effect was assessed.
Cells and virus: MNV (virus strain MNV-1.CW1) was propagated in RAW 264.7 cells grown in DMEM (Life Technologies, Gent, Belgium) supplemented with 10% or 2% FBS, 2 mM L-glutamine, 20 mM HEPES, 0.075 g/L sodium bicarbonate, 1 mM sodium pyruvate, 100 U penicillin/mL and 100 µg/mL streptomycin at 37 °C in a humidified atmosphere of 5% CO2. The human norovirus GI.1 replicon harboring gastric tumor-1 cell line (HGT-NV) (kindly provided by Dr. Ian Goodfellow, University of Cambridge) was maintained in DMEM supplemented with 10% FBS, 2mM L-glutamine, 0.075 g/L sodium bicarbonate and 1.0 mg/ml of Geneticin (G418; Life Technologies), at 37 °C in a humidified atmosphere of 5% CO2[34].
Antiviral assay with MNV: The antiviral activity of the Compounds was determined using an MTS [3-(4,5-dimethylthiazol-2-yl)-5-(3-carboxymethoxyphenyl)-2-(4-sulfophenyl)-2H-tetrazolium]-based cytopathic effect (CPE) reduction assay. […] Then, a MTS-phenazinemethosulfate (MTS/PMS) stock solution [(2 mg/mL MTS (Promega, Leiden, The Netherlands) and 46 µg/mL PMS (Sigma–Aldrich, Bornem, Belgium) in PBS at pH 6–6.5)] was diluted 1/20 in MEM (Life Technologies, Gent, Belgium) and 75 µL were added to each well. After 2 h, the optical density (OD) was read at 498 nm. The %CPE reduction was calculated as [(ODtreated)MNV − ODVC]/[ODCC − ODVC] × 100, where ODCC represents the OD of the uninfected untreated cells, whereas ODVC and (ODtreated)MNV represent the OD of infected untreated cells and virus-infected cells treated with a compound concentration, respectively. The 50% effective concentration (EC50) was defined as the compound concentration that protected 50% of the cells from virus-induced CPE[34].

Series [1] in a line: Cytotoxicity by the MTS method on uninfected cells. The note with it: mouse, uninfected RAW 264.7 cells. In kind it is cell-based. On the procedure: Cytotoxicity: The cytotoxicity of the Compounds was evaluated by the MTS method, by exposing uninfected cells to the same concentrations of compounds for 3 days. The %cell viability was calculated as (ODtreated/ODCC) × 100, where ODCC is the OD of uninfected untreated cells and ODtreated are uninfected cells treated with compound. The CC50 was defined as the compound concentration that reduces the number of viable cells by 50%[34].

Where [2] appears, read: Supplementary Table S1, at least two independent experiments.
Setting [3] is: Table 2, RAW 264.7, range 0.6–100 µM, at least three independent experiments.
The mark [4] stands for this setting: Table 2, at least three independent experiments.

Turning to `O=C1NN(c2ccccc2)C(=O)/C1=C/c1ccc(-c2ccc(S(=O)(=O)Nc3ncco3)cc2)o1` [Compound 5, (E)-4-(5-((3,5-dioxo-1-phenylpyrazolidin-4-ylidene)methyl)furan-2-yl)-N-(oxazol-2-yl)benzenesulfonamide], on HuNoV (GII.4) RdRp, the concentration for half-maximal inhibition (IC50) (as a rule, the midpoint of a concentration-inhibition curve) worked out at 12.8 ± 2.6 µM. Moreover, the EC50 – broadly, the concentration giving half of the maximal effect – in the series on MNV (setting [2]) was above 100 µM. Also, the 50% cytotoxic concentration (CC50) (in general, the concentration giving 50% cytotoxicity) at 3 days in series [1] (setting [2]) is above 100 µM.
Turning to `CCOC(=O)c1cccc(N2NC(=O)/C(=C\c3ccc(-c4ccc(S(=O)(=O)Nc5ccccc5)cc4)o3)C2=O)c1` [Compound 35, Ethyl(E)-3-(3,5-dioxo-4-((5-(4-(N-phenylsulfamoyl)phenyl)furan-2-yl)methylene)pyrazolidin-1-yl)benzoate], the half-maximal inhibitory concentration (IC50) on HuNoV (GII.4) RdRp was found to be 18.9 ± 3.1 µM. Moreover, in the series with MNV (setting [2]), the concentration giving a half-maximal response (EC50) was above 100 µM. Besides, the CC50 at 3 days in series [1] (setting [2]) was above 100 µM.
`O=C(NC(=S)Nc1ccc(N2CCN(C(=O)c3cccs3)CC2)cc1)c1sc2ccccc2c1C(F)(F)F` [Compound 50, N-((4-(4-(Thiophene-2-carbonyl)piperazin-1-yl)phenyl)carbamothioyl)-3-(trifluoromethyl)benzo[b] thiophene-2-carboxamide]: the inhibition at 20 µM on HuNoV (GII.4) RdRp was in the range of 15 to 20%.
Consider `O=C(Nc1ccc(N2CCN(C(=O)c3cccs3)CC2)cc1)c1ccccc1` [Compound 73, N-(4-(4-(thiophene-2-carbonyl)piperazin-1-yl)phenyl)benzamide], for which the inhibition at 20 µM at HuNoV (GII.4) RdRp was around 40%.
In the case of `O=C(NC(=S)Nc1ccc(N2CCN(C(=O)c3ccccc3)CC2)cc1)c1sc2ccccc2c1Cl` [Compound 54, N-((4-(4-Benzoylpiperazin-1-yl)phenyl)carbamothioyl)-3-chlorobenzo[b]thiophene-2-carboxamide], the inhibition at 20 µM on HuNoV (GII.4) RdRp was at most 60%. The EC50 with MNV (setting [3]) was above 100 µM. Moreover, it took 4.5 ± 0.7 µM to reach half-maximal cytotoxicity in series [1] (setting [4]) (CC50 at 3 days).
Take `O=C1NN(c2cccc(C(=O)O)c2)C(=O)/C1=C/c1ccc(-c2ccc(S(=O)(=O)Nc3ccccc3)cc2)o1` [Compound 3, (E)-3-(3,5-dioxo-4-((5-(4-(N-phenylsulfamoyl)phenyl)furan-2-yl)methylene)pyrazolidin-1-yl)benzoic acid]: at HuNoV (GII.4) RdRp, the half-inhibitory concentration (IC50) came to 22.5 ± 6.5 µM. Besides, the EC50 with MNV (setting [2]) was above 100 µM. In series [1] (setting [2]), this compound showed a 50% cytotoxic concentration (CC50) at 3 days above 100 µM.
For the compound `O=C(NC(=S)Nc1ccc(N2CCN(C(=O)c3cccs3)CC2)cc1)c1ccccc1` [Compound 51, N-((4-(4-(Thiophene-2-carbonyl)piperazin-1-yl)phenyl)carbamothioyl)benzamide], the inhibition at 20 µM on HuNoV (GII.4) RdRp was around 15%.
As for `O=C(NC(=S)Nc1ccc(N2CCN(C(=O)c3nccs3)CC2)cc1)c1ccccc1` [Compound 58, N-((4-(4-(Thiazole-2-carbonyl)piperazin-1-yl)phenyl)carbamothioyl)benzamide], on HuNoV (GII.4) RdRp, the inhibition at 20 µM was around 20%.
For the compound `O=C(NC(=S)Nc1ccc(N2CCN(C(=O)c3cccs3)CC2)cc1)c1cc2ccccc2s1` [Compound 49, N-((4-(4-(Thiophene-2-carbonyl)piperazin-1-yl)phenyl)carbamothioyl)benzo[b]thiophene-2-carboxamide], at HuNoV (GII.4) RdRp, the inhibition at 20 µM is 15 to 20%. The compound also came in with a concentration giving a half-maximal response (EC50) in the series on MNV (setting [3]) above 100 µM. For the same compound, the CC50 at 3 days in series [1] (setting [4]) is above 100 µM.
Consider `O=C1NN(c2ccccc2)C(=O)/C1=C/c1ccc(-c2ccc(S(=O)(=O)Nc3nc4ccccc4[nH]3)cc2)o1` [Compound 6, (E)-N-(1H-benzo[d]imidazol-2-yl)-4-(5-((3,5-dioxo-1-phenylpyrazolidin-4-ylidene)methyl)furan-2-yl)benzenesulfonamide], for which the IC50 at HuNoV (GII.4) RdRp is 26.7 ± 2 µM. In the series on MNV (setting [2]), this compound gave an EC50 of 89 ± 2 µM. In series [1] (setting [2]), the CC50 at 3 days was above 100 µM.
As for `O=C(NC(=S)Nc1ccc(N2CCN(C(=O)c3ccccc3)CC2)cc1)c1ccccc1` [Compound 55, N-((4-(4-Benzoylpiperazin-1-yl)phenyl)carbamothioyl)benzamide], on HuNoV (GII.4) RdRp, the inhibition at 20 µM is around 20%. In addition, in the series with MNV (setting [3]), the EC50 was above 100 µM. Further, the CC50 at 3 days in series [1] (setting [4]) came out at 61.9 µM.
As to `O=C1NN(c2ccc(C(=O)O)cc2)C(=O)/C1=C/c1ccc(-c2ccc(S(=O)(=O)Nc3ccccc3)cc2)o1` [Compound 2, (E)-4-(3,5-dioxo-4-((5-(4-(N-phenylsulfamoyl)phenyl)furan-2-yl)methylene)pyrazolidin-1-yl)benzoic acid], on HuNoV (GII.4) RdRp, the IC50 worked out at 17.2 ± 2.4 µM. Moreover, in the series on MNV (setting [2]), the EC50 is above 100 µM. This compound gave a CC50 at 3 days in series [1] (setting [2]) above 100 µM.
In the series on MNV (setting [3]), `C[C@@]1(O)[C@H](O)[C@@H](CO)O[C@H]1n1ccc(N)nc1=O` [Compound 2CMC, 2′-C-methylcytidine, reference compound] registered an EC50 of 2 ± 1 µM. This compound also returned a 50% cytotoxic concentration (CC50) at 3 days in series [1] (setting [4]) of 16 ± 2 µM.
